Measurements from article PMC11011441, “Bioactive Compounds and Potential Health Benefits through Cosmetic Applications of Cherry Stem Extract” (International Journal of Molecular Sciences, 2024).

Experiments:
Assay type in all cases: biochemical
[1] = Nitric oxide scavenging (oxidation of DAF-2); conditions: radical scavenging
Experimental: (§1) The ability of cherry stem extract to inhibit superoxide radical (O2^·−), hypochlorous acid (HOCl), and nitric oxide (NO^·) was evaluated. […] The scavenging properties of cherry stem extract and positive controls against the O2^·− radical were assessed colorimetrically by reduction of NBT to diformazan purple. The ability of the cherry stem extract to inhibit HOCl by inducing the oxidation of DHR to rhodamine was determined. The scavenging activity of cherry stem extract against NO^· was determined by oxidation of DAF-2. To assess the inhibition of O2^·−, NO^·, and HOCl radicals, epicatechin (EPI) and gallic acid (GA) were employed as reference controls. All results were expressed as IC50 value using different concentrations of cherry stem extract and all measurements were performed in triplicate.

hyaluronidase (HYALase) = assay: HYALase inhibition assay (turbidity at 600 nm)
Experimental: The potential of cherry stem extract to inhibit hyaluronidase ([…]), collagenase, elastase, tyrosinase, and xanthine oxidase enzymes was evaluated. The methods were carried out following previous studies. The […] inhibition assay involves quantifying the reduction in transmitted light intensity caused by particles generated from the breakdown of hyaluronic acid (HYAL) by the […] enzyme. Absorbance readings were taken at 600 nm. EPI and GA were employed as controls to evaluate […] inhibition. The outcomes from the EPI and GA controls were reported as IC20 values. Results for cherry stem extract were presented as IC50 values at various extract concentrations, except for the enzyme tyrosinase, which was presented as IC55 value at various extract concentrations. All evaluations were performed in triplicate.

[2] = Superoxide radical scavenging (reduction of NBT to diformazan)
Experimental: as §1

[3] = Hypochlorous acid scavenging (oxidation of DHR to rhodamine); conditions: radical scavenging
Experimental: as §1

collagenase = assay: Collagenase inhibition (FALGPA degradation)
Experimental: (§2) The potential of cherry stem extract to inhibit hyaluronidase (HYALase), collagenase, elastase, tyrosinase, and xanthine oxidase enzymes was evaluated. The methods were carried out following previous studies.
The evaluation of collagenase enzyme activity is based on the colorimetric analysis of the degradation of the FALGPA substrate by the enzyme. The absorbance measurements were taken at 335 nm. Phenanthroline (PHE) was used as the control to assess collagenase inhibition, and the IC50 value was quantified as the control.
(§3) Results for cherry stem extract were presented as IC50 values at various extract concentrations, except for the enzyme tyrosinase, which was presented as IC55 value at various extract concentrations. All evaluations were performed in triplicate.

elastase = assay: Elastase inhibition (MeOSuc-Ala-Ala-Pro-Val-pNa hydrolysis); conditions: at 51.26 mg/L
Experimental: as §2
The assessment of elastase enzyme inhibition was based on the release of p-nitroaniline resulting from the hydrolysis of the substrate MeOSuc-Ala-Ala-Pro-Val-pNa by elastase. The quantity of p-nitroaniline was gauged through absorbance readings at 405 nm. Elastatinal (ELA) was employed as the control for elastase inhibition. The control result was stated as % inhibition.
as §3

tyrosinase = assay: Tyrosinase inhibition (Colorimetric Tyrosinase Inhibitor Detection Kit); conditions: at 21.3 mg/L
Experimental: The potential of cherry stem extract to inhibit hyaluronidase ([…]), collagenase, elastase, tyrosinase, and xanthine oxidase enzymes was evaluated. The methods were carried out following previous studies. The evaluation of tyrosinase inhibition was conducted using a “Colorimetric Tyrosinase Inhibitor Detection Kit” sourced from Sigma-Aldrich, USA. Inhibition control was established with kojic acid (KA). The control outcome was represented as % inhibition. Results for cherry stem extract were presented as IC50 values at various extract concentrations, except for the enzyme tyrosinase, which was presented as IC55 value at various extract concentrations. All evaluations were performed in triplicate.

**Q.** For Oc1cc(O)c2c(c1)O[C@H](c1ccc(O)c(O)c1)[C@H](O)C2 [EPI, epicatechin], which “NO^· inhibitory concentration at 50%” value [1] is on record?
**A.** Its value is 0.87 ± 0.02 mg/L.

**Q.** And the “HYALase inhibitory concentration at 20% (IC20)” value (hyaluronidase (HYALase))?
**A.** The value was 167 ± 6 ^5 mg/L.

**Q.** And the “O2^·− inhibitory concentration at 50%” value [2]?
**A.** Its value is 70 ± 5 mg/L.

**Q.** And the “HOCl inhibitory concentration at 50%” value [3]?
**A.** The value was 0.18 ± 0.01 mg/L.

**Q.** What does the source list for O=C(O)c1cc(O)c(O)c(O)c1 [GA, gallic acid]?
**A.** NO^· inhibitory concentration at 50% [1]: 1.4 ± 0.3 mg/L; HYALase inhibitory concentration at 20% (IC20) (hyaluronidase (HYALase)): 102 ± 4 ^5 mg/L; O2^·− inhibitory concentration at 50% [2]: 50 ± 3 mg/L; HOCl inhibitory concentration at 50% [3]: 3.8 ± 0.3 mg/L

**Q.** With c1cnc2c(c1)ccc1cccnc12 [PHE, 1, 10-phenanthroline] as the compound, how does the “Collagenase inhibitory concentration at 50%” value (collagenase) read?
**A.** The value was 83 ± 2 mg/L.

**Q.** With CC(C)C[C@H](NC(=O)N[C@H](C(=O)N[C@@H](CCC(N)=O)C(=O)N[C@@H](C)C=O)[C@@H]1CCNC(=N)N1)C(=O)O [ELA, elastatinal] as the compound, how does the Elastase % inhibition (elastase) read?
**A.** Its Elastase % inhibition is 53 ± 5 ^4%.

**Q.** For O=c1cc(CO)occ1O [KA, Kojic acid], which Tyrosinase % inhibition (tyrosinase) is on record?
**A.** Its Tyrosinase % inhibition is 49 ± 6 ^3%.
